Results as given in PubChem BioAssay AID1330 (NMMLSC, 2008).
Activity calls are given as the source filed them. How the calls were made is not given here.

Biological target: Bcl-2-like protein 2 (Homo sapiens) (UniProt Q92843)
Assay: modulators of Bim-Bcl-W protein interaction, dose response, biochemical, multiplexed, bead-based flow cytometry, fluorescence (AID 1330)
Conditions: Bim-Bcl-W binding

Sequence of Bcl-2-like protein 2 (Homo sapiens) (Q92843 whole entry, looked up): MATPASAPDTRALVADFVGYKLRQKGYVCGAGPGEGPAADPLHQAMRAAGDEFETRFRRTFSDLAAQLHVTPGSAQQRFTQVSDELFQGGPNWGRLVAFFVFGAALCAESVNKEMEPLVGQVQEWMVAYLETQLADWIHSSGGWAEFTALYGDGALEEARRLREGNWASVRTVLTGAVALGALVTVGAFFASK

| Structure (SMILES) | EC50 |
| --- | --- |
| O=C(N/N=C/c1ccc(O)c(O)c1O)/C(=C/c1ccc([N+](=O)[O-])cc1)NC(=O)c1ccccc1 | inactive |
| COc1cccc(/C=N/Nc2nn3cnnc3c3ccccc23)c1 | inactive |
| CCC(=O)N(CC)C1=C(O)c2ccccc2C(=O)C1=O | inactive |
| COc1cccc(/C=N/Nc2nn3cnnc3c3ccccc23)c1O | inactive |
| O=[N+]([O-])c1ccc(N/N=C/c2ccc(O)c(O)c2O)c(S(=O)(=O)N2CCOCC2)c1 | 3.52 µM |
